Data as given in ChEMBL document CHEMBL4507257, “Data for DCP probe ABT-100” (2021).

What was measured:
[1] = target: Inhibitor of nuclear factor kappa-B kinase subunit beta (Homo sapiens) (UniProt O14920); conditions: Compound concentration 1000.0 nM
[2] = target: Leukocyte tyrosine kinase receptor (Homo sapiens) (UniProt P29376); conditions: Compound concentration 1000.0 nM
[3] = target: Serine/threonine-protein kinase Nek2 (Homo sapiens) (UniProt P51955); conditions: Compound concentration 1000.0 nM
Chain of Serine/threonine-protein kinase Nek2 (Homo sapiens) (P51955 whole entry, canonical isoform): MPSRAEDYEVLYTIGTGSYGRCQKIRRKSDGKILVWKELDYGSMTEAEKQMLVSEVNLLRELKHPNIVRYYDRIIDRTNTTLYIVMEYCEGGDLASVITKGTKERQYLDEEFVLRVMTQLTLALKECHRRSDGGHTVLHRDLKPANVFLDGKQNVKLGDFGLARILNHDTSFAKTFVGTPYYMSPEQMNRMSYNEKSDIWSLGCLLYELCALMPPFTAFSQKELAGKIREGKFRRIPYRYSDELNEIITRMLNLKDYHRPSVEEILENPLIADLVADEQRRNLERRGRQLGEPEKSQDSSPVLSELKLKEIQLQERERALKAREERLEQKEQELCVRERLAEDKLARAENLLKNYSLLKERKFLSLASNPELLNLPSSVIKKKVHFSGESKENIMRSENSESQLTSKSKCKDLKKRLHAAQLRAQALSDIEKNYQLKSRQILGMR

[4] = target: Casein kinase I isoform alpha-like (Homo sapiens) (UniProt Q8N752); conditions: Compound concentration 1000.0 nM
[5] = target: Phosphorylase b kinase regulatory subunit alpha, liver isoform (Homo sapiens) (UniProt P46019); conditions: Compound concentration 1000.0 nM
[6] = target: Protein kinase C epsilon type (Homo sapiens) (UniProt Q02156); conditions: Compound concentration 1000.0 nM
[7] = target: Mitogen-activated protein kinase kinase kinase 5 (Homo sapiens) (UniProt Q99683); conditions: Compound concentration 1000.0 nM
Chain of Mitogen-activated protein kinase kinase kinase 5 (Homo sapiens) (Q99683 whole entry, canonical isoform): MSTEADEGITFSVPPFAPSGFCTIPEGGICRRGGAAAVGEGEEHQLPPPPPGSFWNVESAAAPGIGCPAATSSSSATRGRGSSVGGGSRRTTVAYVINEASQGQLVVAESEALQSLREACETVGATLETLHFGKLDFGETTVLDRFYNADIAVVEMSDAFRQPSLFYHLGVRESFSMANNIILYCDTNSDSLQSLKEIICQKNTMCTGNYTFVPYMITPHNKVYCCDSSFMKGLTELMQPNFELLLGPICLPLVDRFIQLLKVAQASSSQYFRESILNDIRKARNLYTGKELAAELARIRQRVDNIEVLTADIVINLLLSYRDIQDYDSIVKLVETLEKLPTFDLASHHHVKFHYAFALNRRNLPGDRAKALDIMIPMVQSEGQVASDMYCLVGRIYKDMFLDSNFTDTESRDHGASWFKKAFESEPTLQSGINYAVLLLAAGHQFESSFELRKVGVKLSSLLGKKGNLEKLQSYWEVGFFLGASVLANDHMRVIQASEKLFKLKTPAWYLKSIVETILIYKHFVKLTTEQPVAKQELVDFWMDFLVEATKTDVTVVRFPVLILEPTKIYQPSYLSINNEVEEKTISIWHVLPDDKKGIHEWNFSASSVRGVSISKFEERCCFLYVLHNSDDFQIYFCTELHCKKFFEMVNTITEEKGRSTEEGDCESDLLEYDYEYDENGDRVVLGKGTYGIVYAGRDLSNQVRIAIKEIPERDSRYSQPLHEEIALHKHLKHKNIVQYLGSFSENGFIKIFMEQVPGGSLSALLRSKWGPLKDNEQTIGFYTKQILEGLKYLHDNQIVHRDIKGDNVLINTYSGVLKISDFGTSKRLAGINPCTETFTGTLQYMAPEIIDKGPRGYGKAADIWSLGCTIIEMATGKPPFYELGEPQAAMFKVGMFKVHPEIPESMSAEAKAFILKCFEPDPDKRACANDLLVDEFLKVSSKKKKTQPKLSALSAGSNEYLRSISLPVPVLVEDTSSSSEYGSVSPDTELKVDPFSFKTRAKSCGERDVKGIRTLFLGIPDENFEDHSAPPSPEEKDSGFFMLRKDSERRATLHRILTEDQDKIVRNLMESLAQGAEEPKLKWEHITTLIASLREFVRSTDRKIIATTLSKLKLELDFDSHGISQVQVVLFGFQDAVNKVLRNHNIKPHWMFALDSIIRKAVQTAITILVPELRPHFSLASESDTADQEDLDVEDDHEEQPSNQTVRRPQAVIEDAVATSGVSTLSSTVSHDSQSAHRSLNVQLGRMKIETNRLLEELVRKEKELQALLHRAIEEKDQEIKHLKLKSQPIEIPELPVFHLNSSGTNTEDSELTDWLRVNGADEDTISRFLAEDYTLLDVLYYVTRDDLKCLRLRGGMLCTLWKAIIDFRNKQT

[8] = system: Phosphatidylinositol 4,5-bisphosphate 3-kinase catalytic subunit alpha isoform (Homo sapiens), P42336 [E545K]; conditions: Compound concentration 1000.0 nM
[9] = target: Phosphatidylinositol 4-phosphate 5-kinase type-1 alpha (Homo sapiens) (UniProt Q99755); conditions: Compound concentration 1000.0 nM
[10] = target: Tyrosine-protein kinase Srms (Homo sapiens) (UniProt Q9H3Y6); conditions: Compound concentration 1000.0 nM
[11] = target: Interferon-induced, double-stranded RNA-activated protein kinase (Homo sapiens) (UniProt P19525); conditions: Compound concentration 1000.0 nM
[12] = target: Serine/threonine-protein kinase D2 (Homo sapiens) (UniProt Q9BZL6); conditions: Compound concentration 1000.0 nM
[13] = target: Homeodomain-interacting protein kinase 2 (Homo sapiens, UniProt Q9H2X6); conditions: Compound concentration 1000.0 nM
[14] = target: Serine/threonine-protein kinase ULK3 (Homo sapiens) (UniProt Q6PHR2); conditions: Compound concentration 1000.0 nM
[15] = target: Fibroblast growth factor receptor 3 (Homo sapiens) (UniProt P22607); conditions: Compound concentration 1000.0 nM
[16] = target: Fibroblast growth factor receptor 2 (Homo sapiens) (UniProt P21802); conditions: Compound concentration 1000.0 nM
[17] = target: Activated CDC42 kinase 1 (Homo sapiens) (UniProt Q07912); conditions: Compound concentration 1000.0 nM
Chain of Activated CDC42 kinase 1 (Homo sapiens) (Q07912 whole entry, looked up): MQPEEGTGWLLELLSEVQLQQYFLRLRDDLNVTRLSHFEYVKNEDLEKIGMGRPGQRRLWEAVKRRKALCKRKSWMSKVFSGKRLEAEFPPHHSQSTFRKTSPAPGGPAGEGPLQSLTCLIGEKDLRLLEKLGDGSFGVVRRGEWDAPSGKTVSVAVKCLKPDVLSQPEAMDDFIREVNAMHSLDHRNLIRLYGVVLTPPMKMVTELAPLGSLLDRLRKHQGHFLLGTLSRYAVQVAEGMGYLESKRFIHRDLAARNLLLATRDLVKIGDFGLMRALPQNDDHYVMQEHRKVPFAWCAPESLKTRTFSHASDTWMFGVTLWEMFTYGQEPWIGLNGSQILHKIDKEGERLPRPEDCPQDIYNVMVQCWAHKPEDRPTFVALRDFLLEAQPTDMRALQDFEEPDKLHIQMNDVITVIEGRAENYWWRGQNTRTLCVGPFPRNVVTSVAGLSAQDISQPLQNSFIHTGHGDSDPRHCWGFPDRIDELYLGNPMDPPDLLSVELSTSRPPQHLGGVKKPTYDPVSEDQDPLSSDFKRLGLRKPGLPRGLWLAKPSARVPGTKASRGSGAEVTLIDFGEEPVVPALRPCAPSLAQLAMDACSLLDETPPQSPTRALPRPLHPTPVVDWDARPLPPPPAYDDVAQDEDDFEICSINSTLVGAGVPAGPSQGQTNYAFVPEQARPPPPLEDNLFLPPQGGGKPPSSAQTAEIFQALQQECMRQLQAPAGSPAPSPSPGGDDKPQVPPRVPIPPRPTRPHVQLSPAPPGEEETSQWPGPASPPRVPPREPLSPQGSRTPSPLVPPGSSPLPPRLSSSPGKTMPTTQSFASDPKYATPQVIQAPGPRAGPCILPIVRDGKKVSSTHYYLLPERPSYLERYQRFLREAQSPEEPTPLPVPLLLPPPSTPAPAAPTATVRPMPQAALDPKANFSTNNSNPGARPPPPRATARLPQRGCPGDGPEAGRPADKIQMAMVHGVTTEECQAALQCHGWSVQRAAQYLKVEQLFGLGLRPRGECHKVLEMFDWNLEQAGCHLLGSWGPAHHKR

[18] = target: Dual specificity protein kinase CLK4 (Homo sapiens) (UniProt Q9HAZ1); conditions: Compound concentration 1000.0 nM
[19] = target: Rho-associated protein kinase 2 (Homo sapiens) (UniProt O75116); conditions: Compound concentration 1000.0 nM
[20] = target: T1, Muscarinic acetylcholine receptor M5 (Homo sapiens) (UniProt P08912); conditions: Compound concentration 10.0 uM
T1 sequence (whole entry): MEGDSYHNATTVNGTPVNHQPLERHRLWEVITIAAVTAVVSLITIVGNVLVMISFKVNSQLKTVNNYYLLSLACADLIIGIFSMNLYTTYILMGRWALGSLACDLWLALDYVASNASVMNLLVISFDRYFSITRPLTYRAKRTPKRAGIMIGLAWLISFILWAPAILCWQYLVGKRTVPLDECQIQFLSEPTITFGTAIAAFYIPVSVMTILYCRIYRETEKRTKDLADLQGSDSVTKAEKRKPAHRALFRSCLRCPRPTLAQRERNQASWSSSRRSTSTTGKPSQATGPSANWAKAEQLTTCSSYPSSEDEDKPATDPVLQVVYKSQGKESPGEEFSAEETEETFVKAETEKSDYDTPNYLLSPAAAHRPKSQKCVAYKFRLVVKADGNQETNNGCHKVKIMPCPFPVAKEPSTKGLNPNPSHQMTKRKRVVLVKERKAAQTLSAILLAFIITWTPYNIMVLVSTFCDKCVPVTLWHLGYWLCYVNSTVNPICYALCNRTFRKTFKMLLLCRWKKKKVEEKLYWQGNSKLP

[21] = target: Ribosomal protein S6 kinase alpha-6 (Homo sapiens) (UniProt Q9UK32); conditions: Compound concentration 1000.0 nM
Chain of Ribosomal protein S6 kinase alpha-6 (Homo sapiens) (Q9UK32 whole entry, canonical isoform): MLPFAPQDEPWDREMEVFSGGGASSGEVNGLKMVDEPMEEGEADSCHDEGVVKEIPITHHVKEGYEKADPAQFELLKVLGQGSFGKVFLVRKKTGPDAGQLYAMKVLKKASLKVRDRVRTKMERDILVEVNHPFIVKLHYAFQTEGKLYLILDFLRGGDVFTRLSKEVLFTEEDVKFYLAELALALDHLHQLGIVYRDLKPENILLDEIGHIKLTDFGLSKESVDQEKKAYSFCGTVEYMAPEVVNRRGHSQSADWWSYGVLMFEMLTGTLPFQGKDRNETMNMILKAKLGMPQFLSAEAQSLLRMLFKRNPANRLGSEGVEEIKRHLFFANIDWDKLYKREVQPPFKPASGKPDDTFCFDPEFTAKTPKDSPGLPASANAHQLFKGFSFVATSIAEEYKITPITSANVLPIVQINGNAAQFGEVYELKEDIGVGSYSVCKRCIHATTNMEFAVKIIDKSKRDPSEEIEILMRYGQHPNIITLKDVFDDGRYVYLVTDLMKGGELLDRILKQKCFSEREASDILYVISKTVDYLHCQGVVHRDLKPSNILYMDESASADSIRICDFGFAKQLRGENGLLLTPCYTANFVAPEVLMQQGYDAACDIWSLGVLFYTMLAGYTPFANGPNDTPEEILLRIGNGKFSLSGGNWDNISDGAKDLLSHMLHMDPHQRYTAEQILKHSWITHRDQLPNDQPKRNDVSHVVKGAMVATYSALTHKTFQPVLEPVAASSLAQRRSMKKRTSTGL

[22] = target: Casein kinase I isoform gamma-3 (Homo sapiens) (UniProt Q9Y6M4); conditions: Compound concentration 1000.0 nM
[23] = target: Calcium/calmodulin-dependent protein kinase type 1D (Homo sapiens) (UniProt Q8IU85); conditions: Compound concentration 1000.0 nM
[24] = target: Atypical kinase COQ8A, mitochondrial (Homo sapiens) (UniProt Q8NI60); conditions: Compound concentration 1000.0 nM
[25] = target: Mitogen-activated protein kinase kinase kinase 20 (Homo sapiens) (UniProt Q9NYL2); conditions: Compound concentration 1000.0 nM
[26] = target: Serine/threonine-protein kinase PknB (Mycobacterium tuberculosis) (UniProt P9WI81); conditions: Compound concentration 1000.0 nM
Aurora kinase B = Aurora kinase B (Homo sapiens, UniProt Q96GD4); conditions: Compound concentration 1000.0 nM
[27] = target: Tyrosine-protein kinase HCK (Homo sapiens) (UniProt P08631); conditions: Compound concentration 1000.0 nM
[28] = target: Alpha-2A adrenergic receptor (Homo sapiens) (UniProt P08913); conditions: Compound concentration 10.0 uM
Chain of Alpha-2A adrenergic receptor (Homo sapiens) (P08913 whole entry): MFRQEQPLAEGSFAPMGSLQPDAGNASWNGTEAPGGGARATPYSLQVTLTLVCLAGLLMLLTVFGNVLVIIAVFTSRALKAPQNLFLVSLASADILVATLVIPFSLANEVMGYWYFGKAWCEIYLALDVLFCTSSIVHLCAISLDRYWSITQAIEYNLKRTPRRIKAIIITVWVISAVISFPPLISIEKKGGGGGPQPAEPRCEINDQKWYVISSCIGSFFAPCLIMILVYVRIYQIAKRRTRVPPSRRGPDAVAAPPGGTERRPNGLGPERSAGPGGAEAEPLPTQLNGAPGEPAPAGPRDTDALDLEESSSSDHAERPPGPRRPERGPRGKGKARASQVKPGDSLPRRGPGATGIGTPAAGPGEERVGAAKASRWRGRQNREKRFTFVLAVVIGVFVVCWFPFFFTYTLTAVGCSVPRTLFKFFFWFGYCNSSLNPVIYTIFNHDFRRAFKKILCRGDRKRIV

[29] = target: Cyclin-dependent kinase 9 (Homo sapiens) (UniProt P50750); conditions: Compound concentration 1000.0 nM
[30] = target: Aurora kinase A (Homo sapiens) (UniProt O14965); conditions: Compound concentration 1000.0 nM
[31] = target: Serine/threonine-protein kinase PAK 5 (Homo sapiens) (UniProt Q9P286); conditions: Compound concentration 1000.0 nM
[32] = target: MAP kinase-interacting serine/threonine-protein kinase 1 (Homo sapiens) (UniProt Q9BUB5); conditions: Compound concentration 1000.0 nM
[33] = target: Mitogen-activated protein kinase 13 (Homo sapiens) (UniProt O15264); conditions: Compound concentration 1000.0 nM
[34] = target: Serine/threonine-protein kinase TNNI3K (Homo sapiens) (UniProt Q59H18); conditions: Compound concentration 1000.0 nM
[35] = target: Tyrosine-protein kinase JAK2 (Homo sapiens) (UniProt O60674); conditions: Compound concentration 1000.0 nM
[36] = target: Proto-oncogene tyrosine-protein kinase receptor Ret (Homo sapiens) (UniProt P07949); conditions: Compound concentration 1000.0 nM
[37] = target: Serine/threonine-protein kinase DCLK3 (Homo sapiens) (UniProt Q9C098); conditions: Compound concentration 1000.0 nM

Chain of Inhibitor of nuclear factor kappa-B kinase subunit beta (Homo sapiens) (O14920 whole entry): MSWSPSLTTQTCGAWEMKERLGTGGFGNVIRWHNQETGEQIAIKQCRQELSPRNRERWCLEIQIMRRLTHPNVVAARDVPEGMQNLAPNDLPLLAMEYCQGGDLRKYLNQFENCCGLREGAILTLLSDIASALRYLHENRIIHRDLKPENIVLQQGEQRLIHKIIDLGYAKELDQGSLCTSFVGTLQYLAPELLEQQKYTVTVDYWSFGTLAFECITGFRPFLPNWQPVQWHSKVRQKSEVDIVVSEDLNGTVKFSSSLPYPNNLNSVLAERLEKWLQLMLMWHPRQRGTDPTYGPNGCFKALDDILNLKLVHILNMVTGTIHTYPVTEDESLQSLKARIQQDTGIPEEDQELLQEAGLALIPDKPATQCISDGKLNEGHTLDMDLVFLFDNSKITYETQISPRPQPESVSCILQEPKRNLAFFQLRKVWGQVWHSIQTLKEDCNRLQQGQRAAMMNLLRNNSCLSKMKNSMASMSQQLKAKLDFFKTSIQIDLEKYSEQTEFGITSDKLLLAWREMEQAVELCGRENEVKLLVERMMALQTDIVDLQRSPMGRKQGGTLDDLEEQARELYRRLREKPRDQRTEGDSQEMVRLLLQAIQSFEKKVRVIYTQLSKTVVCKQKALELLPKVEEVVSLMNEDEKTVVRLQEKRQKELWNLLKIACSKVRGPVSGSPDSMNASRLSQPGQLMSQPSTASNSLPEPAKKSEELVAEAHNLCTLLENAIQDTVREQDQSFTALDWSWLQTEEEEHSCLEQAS

Cn1cncc1[C@@](O)(COc1ccc(C#N)cc1-c1ccc(OC(F)(F)F)cc1)c1ccc(C#N)cc1 [A-108]
inactive: residual activity [1] 100% | residual activity [2] 100% | residual activity [3] 95% | residual activity [4] 100% | residual activity [5] 92% | residual activity [6] 100% | residual activity [7] 91% | residual activity [8] 80% | residual activity [9] 87% | residual activity [10] 100% | residual activity [11] 100% | residual activity [12] 100% | residual activity [13] 100% | residual activity [14] 78% | residual activity [15] 100% | residual activity [16] 100% | residual activity [17] 100% | residual activity [18] 96% | residual activity [19] 100% | inhibition [20] 1.23% | residual activity [21] 100% | residual activity [22] 100% | residual activity [23] 100% | residual activity [24] 100% | residual activity [25] 85% | residual activity [26] 78% | residual activity (Aurora kinase B) 100% | residual activity [27] 100% | inhibition [28] 3.37% | residual activity [29] 100% | residual activity [30] 76% | residual activity [31] 100% | residual activity [32] 81% | residual activity [33] 90% | residual activity [34] 100% | residual activity [35] 65% | residual activity [36] 100% | residual activity [37] 94%

Cn1cncc1[C@](O)(COc1ccc(C#N)cc1-c1ccc(OC(F)(F)F)cc1)c1ccc(C#N)cc1 [ABT-100]
inactive: residual activity [1] 87% | residual activity [2] 91% | residual activity [3] 100% | residual activity [4] 74% | residual activity [5] 92% | residual activity [6] 79% | residual activity [7] 77% | residual activity [8] 97% | residual activity [9] 91% | residual activity [10] 79% | residual activity [11] 100% | residual activity [12] 84% | residual activity [13] 100% | residual activity [14] 88% | residual activity [15] 83% | residual activity [16] 86% | residual activity [17] 100% | residual activity [18] 94% | residual activity [19] 94% | inhibition [20] -4.82% | residual activity [21] 93% | residual activity [22] 71% | residual activity [23] 100% | residual activity [24] 92% | residual activity [25] 100% | residual activity [26] 97% | residual activity (Aurora kinase B) 100% | residual activity [27] 100% | inhibition [28] 32.2% | residual activity [29] 100% | residual activity [30] 95% | residual activity [31] 94% | residual activity [32] 68% | residual activity [33] 87% | residual activity [34] 82% | residual activity [35] 91% | residual activity [36] 94% | residual activity [37] 99%
